Earlier results as cited in US20030170332A1, “Flavonoid extract” (Enzo Nutraceuticals Limited., priority 2001, published 2003).

Experiments:
DNA damage = conditions: for Protection against DNA damage: in vivo (Duthie et al. 1997; Sierens et al. 2001)
[1] = test system: carbonyl levels of immunoglobulin

Structure (SMILES) | Protection against DNA damage (DNA damage) | Effect on protein oxidation of immunoglobulin ([1]; 5 weeks supplementation, 400 mg/day) | Carbonyl levels of immunoglobulin ([1]; 10 and 15 weeks supplementation, subjects with low baseline ascorbate, not in those with normal base line ascorbate) | DNA protection on increasing intake in the diet (DNA damage; in vivo (Beatty et al. 2000))
O=c1c(-c2ccc(O)cc2)coc2cc(O)cc(O)c12 [genistein] | did protect against DNA damage | – | – | –
O=c1c(O)c(-c2cc(O)c(O)c(O)c2)oc2cc(O)cc(O)c12 [myricetin] | did protect against DNA damage | – | – | –
O=C1O[C@H]([C@@H](O)CO)C(O)=C1O [vitamin C] | – | no significant effect | significantly reduced | –
O=c1c(O)c(-c2ccc(O)c(O)c2)oc2cc(O)cc(O)c12 [quercetin] | did protect against DNA damage | – | – | did not result in increased DNA protection
Oc1ccc([C@H]2COc3cc(O)ccc3C2)cc1 [equol] | did protect against DNA damage | – | – | –
